In the experiment the test system is NG108-15 cells (a neuroblastoma-glioma hybrid cell line). As to the kind of experiment: In vitro bioassay in NG108-15 cells stimulated by prostaglandin E1. The class given is cell-based. As to conditions: read-out: IC50 in NG108-15 cells stimulated by PGE1.

`CC(C)C[C@H](NC(=O)[C@H](Cc1ccccc1)NC(=O)CNC(=O)[C@@H](C)NC(=O)[C@@H](N)Cc1ccc(O)cc1)C(=O)NCCNC(=O)[C@H](CC(C)C)NC(=O)[C@H](Cc1ccccc1)NC(=O)CNC(=O)[C@@H](C)NC(=O)[C@@H](N)Cc1ccc(O)cc1` [DPE2]: the IC50 (commonly the concentration that inhibits the measured activity by half) was around 150 pM.

Source of the values: patent US4468383A, “Dimeric enkephalins” (The United States of America as represented by the …, priority 1982, dated 1984).
